In the NIST ThermoML archive (doi:10.1016/j.jct.2004.09.014):
Numbers after ± are expanded uncertainties.

Experiment: xn = mol fraction of the nth substance listed
Settings: 101.3 kPa, Liquid

COCCOCCO [2-(2-methoxyethoxy)ethanol] + CCOC(C)(C)C
mass density [kg/m3]
Settings	293.15 K	298.15 K	303.15 K	308.15 K	313.15 K
x2 = 0	1020.8 ± 1.4	1016.4 ± 1.4	1011.83 ± 1.5	1007.69 ± 1.5	1003.22 ± 1.5
x2 = 0.0501	1008.17 ± 1.4	1003.25 ± 1.4	998.3 ± 1.4	993.76 ± 1.4	988.94 ± 1.5
x2 = 0.1	995.15 ± 1.3	990.04 ± 1.3	984.9 ± 1.4	980.19 ± 1.4	975.19 ± 1.4
x2 = 0.1459	982.68 ± 1.2	977.43 ± 1.3	972.25 ± 1.3	967.46 ± 1.3	962.35 ± 1.4
x2 = 0.1998	967.77 ± 1.2	962.42 ± 1.2	957.22 ± 1.2	952.39 ± 1.3	947.16 ± 1.3
x2 = 0.2556	951.99 ± 1.1	946.59 ± 1.2	941.41 ± 1.2	936.49 ± 1.2	931.19 ± 1.3
x2 = 0.3031	938.38 ± 1.1	932.91 ± 1.1	927.71 ± 1.1	922.72 ± 1.2	917.37 ± 1.2
x2 = 0.3521	924.22 ± 1.1	918.7 ± 1.1	913.47 ± 1.1	908.42 ± 1.1	902.96 ± 1.2
x2 = 0.4004	910.16 ± 1	904.58 ± 1	899.35 ± 1.1	894.26 ± 1.1	888.75 ± 1.1
x2 = 0.4511	895.34 ± 0.96	889.68 ± 0.99	884.41 ± 1	879.28 ± 1.1	873.72 ± 1.1
x2 = 0.4998	881.09 ± 0.91	875.34 ± 0.95	870.08 ± 0.98	864.91 ± 1	859.34 ± 1.1
x2 = 0.5628	862.65 ± 0.86	856.89 ± 0.9	851.64 ± 0.93	846.47 ± 0.97	840.9 ± 1
x2 = 0.5997	851.96 ± 0.84	846.15 ± 0.87	840.91 ± 0.91	835.75 ± 0.94	830.21 ± 0.98
x2 = 0.6621	833.91 ± 0.79	828.16 ± 0.83	822.99 ± 0.86	817.83 ± 0.9	812.29 ± 0.94
x2 = 0.6997	823.14 ± 0.77	817.44 ± 0.8	812.33 ± 0.84	807.17 ± 0.88	801.6 ± 0.91
x2 = 0.7411	811.55 ± 0.74	805.81 ± 0.78	800.69 ± 0.82	795.54 ± 0.85	790.02 ± 0.89
x2 = 0.7995	795.39 ± 0.71	789.63 ± 0.74	784.53 ± 0.78	779.35 ± 0.82	773.85 ± 0.86
x2 = 0.8401	784.28 ± 0.69	778.52 ± 0.72	773.45 ± 0.76	768.28 ± 0.8	762.75 ± 0.84
x2 = 0.8998	768.16 ± 0.66	762.41 ± 0.69	757.39 ± 0.73	752.25 ± 0.77	746.7 ± 0.81
x2 = 0.9498	754.72 ± 0.63	748.99 ± 0.67	744.04 ± 0.71	738.99 ± 0.75	733.52 ± 0.79

COCCOCCOCCO [2-[2-(2-methoxyethoxy)ethoxy]ethanol] + CCOC(C)(C)C
mass density [kg/m3]
Settings	293.15 K	298.15 K	303.15 K	308.15 K	313.15 K
x2 = 0	1047.29 ± 1.9	1042.97 ± 1.9	1038.65 ± 1.9	1034.33 ± 1.9	1030.01 ± 2
x2 = 0.0504	1037.46 ± 1.8	1032.75 ± 1.8	1028.05 ± 1.8	1023.44 ± 1.9	1018.75 ± 1.9
x2 = 0.1	1026.36 ± 1.7	1021.48 ± 1.7	1016.59 ± 1.8	1011.83 ± 1.8	1006.97 ± 1.8
x2 = 0.1509	1014.18 ± 1.6	1009.14 ± 1.7	1004.22 ± 1.7	999.35 ± 1.7	994.34 ± 1.7
x2 = 0.2025	1000.97 ± 1.6	995.85 ± 1.6	990.92 ± 1.6	985.93 ± 1.6	980.82 ± 1.6
x2 = 0.2489	988.73 ± 1.5	983.55 ± 1.5	978.6 ± 1.5	973.56 ± 1.5	968.35 ± 1.6
x2 = 0.3007	974.54 ± 1.4	969.31 ± 1.4	964.34 ± 1.4	959.27 ± 1.5	953.99 ± 1.5
x2 = 0.3511	960.3 ± 1.3	954.96 ± 1.3	949.94 ± 1.4	944.86 ± 1.4	939.57 ± 1.4
x2 = 0.3999	946.13 ± 1.2	940.72 ± 1.3	935.65 ± 1.3	930.52 ± 1.3	925.15 ± 1.3
x2 = 0.4508	930.95 ± 1.2	925.44 ± 1.2	920.33 ± 1.2	915.15 ± 1.2	909.71 ± 1.3
x2 = 0.5001	915.87 ± 1.1	910.23 ± 1.1	905.09 ± 1.1	899.84 ± 1.2	894.39 ± 1.2
x2 = 0.5493	900.4 ± 1	894.71 ± 1.1	889.55 ± 1.1	884.29 ± 1.1	878.77 ± 1.1
x2 = 0.6	884.14 ± 0.97	878.36 ± 1	873.18 ± 1	867.9 ± 1.1	862.36 ± 1.1
x2 = 0.6503	867.65 ± 0.91	861.88 ± 0.94	856.69 ± 0.98	851.4 ± 1	845.82 ± 1
x2 = 0.6998	851.17 ± 0.86	845.39 ± 0.89	840.21 ± 0.93	834.91 ± 0.96	829.29 ± 1
x2 = 0.7491	834.48 ± 0.81	828.67 ± 0.84	823.52 ± 0.88	818.24 ± 0.91	812.58 ± 0.95
x2 = 0.7999	816.94 ± 0.76	811.16 ± 0.8	806.01 ± 0.83	800.74 ± 0.87	795.06 ± 0.91
x2 = 0.8509	798.94 ± 0.72	793.17 ± 0.76	788.08 ± 0.79	782.84 ± 0.83	777.19 ± 0.87
x2 = 0.9001	780.97 ± 0.68	775.22 ± 0.72	770.16 ± 0.76	764.98 ± 0.8	759.37 ± 0.84
x2 = 0.9498	761.89 ± 0.65	756.2 ± 0.69	751.24 ± 0.73	746.17 ± 0.77	740.68 ± 0.81

CCOC(C)(C)C [2-ethoxy-2-methylpropane] + COCCO
mass density [kg/m3]
Settings	293.15 K	298.15 K	303.15 K	308.15 K	313.15 K
x1 = 0.0501	950.05 ± 0.98	944.7 ± 1	939.45 ± 1.1	934.22 ± 1.1	928.99 ± 1.1
x1 = 0.1	936.06 ± 0.96	930.57 ± 0.99	925.31 ± 1	919.94 ± 1.1	914.61 ± 1.1
x1 = 0.1508	921.99 ± 0.93	916.4 ± 0.96	911.08 ± 1	905.73 ± 1	900.29 ± 1.1
x1 = 0.2	908.51 ± 0.9	902.92 ± 0.94	897.66 ± 0.97	892.25 ± 1	886.78 ± 1
x1 = 0.2512	894.84 ± 0.88	889.15 ± 0.91	883.86 ± 0.95	878.57 ± 0.98	873.09 ± 1
x1 = 0.299	882.19 ± 0.85	876.57 ± 0.89	871.27 ± 0.92	865.98 ± 0.96	860.41 ± 1
x1 = 0.3489	869.14 ± 0.83	863.45 ± 0.86	858.24 ± 0.9	852.9 ± 0.94	847.36 ± 0.97
x1 = 0.4	856.06 ± 0.8	850.34 ± 0.84	845.06 ± 0.88	839.8 ± 0.91	834.21 ± 0.95
x1 = 0.4503	843.79 ± 0.78	837.98 ± 0.82	832.77 ± 0.86	827.45 ± 0.89	821.87 ± 0.93
x1 = 0.499	832.46 ± 0.76	826.63 ± 0.8	821.36 ± 0.84	816.1 ± 0.87	810.51 ± 0.91
x1 = 0.55	821.14 ± 0.74	815.31 ± 0.78	810.08 ± 0.82	804.81 ± 0.85	799.19 ± 0.89
x1 = 0.61	808.56 ± 0.72	802.72 ± 0.76	797.49 ± 0.8	792.22 ± 0.83	786.6 ± 0.87
x1 = 0.6599	798.66 ± 0.7	792.76 ± 0.74	787.53 ± 0.78	782.25 ± 0.82	776.65 ± 0.86
x1 = 0.7	790.96 ± 0.69	785.07 ± 0.73	779.87 ± 0.77	774.61 ± 0.81	769.03 ± 0.84
x1 = 0.7511	781.59 ± 0.67	775.75 ± 0.71	770.56 ± 0.75	765.33 ± 0.79	759.73 ± 0.83
x1 = 0.8	773.01 ± 0.66	767.18 ± 0.7	762.01 ± 0.74	756.8 ± 0.78	751.25 ± 0.82
x1 = 0.8489	764.84 ± 0.65	759.04 ± 0.69	753.94 ± 0.73	748.76 ± 0.77	743.21 ± 0.8
x1 = 0.9	756.5 ± 0.63	750.81 ± 0.67	745.76 ± 0.71	740.66 ± 0.75	735.16 ± 0.79
x1 = 0.949	748.89 ± 0.62	743.23 ± 0.66	738.32 ± 0.7	733.24 ± 0.74	727.78 ± 0.78
x1 = 1	741.11 ± 0.61	735.59 ± 0.65	730.85 ± 0.69	725.98 ± 0.73	720.69 ± 0.77
